# Legend:
# [1] = Photoisomerization kinetics and quantum yields of the protonated forms (UV-vis); assay type: physicochemical; conditions: for k E-PH+ to Z-PH+ photoisomerization: pH 6 (pH 5 for P bH·Cl); for Φ Z→E photoisomerization quantum yield: irradiation at 440 nm
# Description: (§1) Photoisomerization studies were subsequently carried out in acidic medium (pH = pK a – 2) in order to assess the photoresponse of the protonated species. Under these conditions, the anticipated photoisomerization of the thermally stable E-P a–dH^+ species was investigated by UV–vis absorption spectroscopy under irradiation at 254 nm. […] It is noteworthy that the irradiation wavelength can be extended to 365 nm, yielding virtually the same observations as for 254 nm irradiation (see footnotes of Table ). Irradiation also produced clear NMR spectral changes that support the occurrence of the E→Z isomerization. In essence, the signals Hf–h of the phenyl moiety were only slightly affected, whereas those of the pyridinium and acylhydrazone fragments shifted markedly, consistent with the formation of an intramolecular hydrogen bond in the Z-P a–cH^+ species. The reverse Z→E transformation of the protonated forms P a–cH^+ was also achieved upon irradiation at λ > 420 nm, giving lower quantum yields and less favorable PSDs (Figures S145–S147, S149–154, S1).
# 5. Isomerization Photochemical Data.
# 5.1. E-P a-cH+→Z-P a-cH+ photoisomerization kinetics.
# (§2) Figure S138. Left: variations in the absorption spectrum of P aH·Cl (20.6 µM, pH = 6) upon irradiation at 254 nm; the absorption spectrum of the E-form is shown in red; the photostationary state is in blue. Right: Kinetics (monitored at 320 nm) for the E-P aH+ to Z-P aH+ photoisomerization (20.6 µM) upon irradiation at 254 nm (I 0 = 1.37 × 10 –7 mol/s); k = 1.55 × 10 –2 […]
# as §2, with “S139.” for “S138.”, “(17.5” for “(20.6”, “365” for “254”, “400” for “320”, “2.6” for “1.37”, “6.4” for “1.55”
# Figure S140. Left: variations in the absorption spectrum of P bH·Cl (7.9 µM, pH = 5) upon […]
# state is in blue. Right: Kinetics (monitored at 370 nm) for the E-P bH+ to Z-P bH+ photoisomerization (7.9 µM) upon irradiation at 254 nm (I 0 = 1.41 × 10 –7 mol/s); k = 4.91 × 10 –2 […]
# Figure S141. Left: variations in the absorption spectrum of P bH·Cl (10 µM, pH = 5) upon […]
# state is in blue. Right: Kinetics (monitored at 420 nm) for the E-P bH+ to Z-P bH+ photoisomerization (10 µM) upon irradiation at 365 nm (I 0 = 2.0 × 10 –7 mol/s); k = 3.0 × 10 –2 s–1.
# Figure S142. Left: variations in the absorption spectrum of P cH·Cl (9 µM, pH = 6) upon […]
# state is in blue. Right: Kinetics (monitored at 377 nm) of the E-P cH+ to Z-P cH+ photoisomerization […]
# Figure S143. Left: variations in the absorption spectrum of P cH·Cl (10 µM, pH = 6) upon […]
# state is in blue. Right: Kinetics (monitored at 410 nm) of the E-P cH+ to Z-P cH+ photoisomerization
# [2] = Photostationary state distribution by 1H NMR integration; assay type: physicochemical; conditions: pD 6; for PSD E→Z (photostationary state distribution): irradiation at 254 nm; for PSD Z→E (photostationary state distribution): irradiation at >420 nm
# Description: as §1
# [3] = irradiation at 254 nm (I0 1.37–1.41 × 10–7 mol/s)
# [4] = irradiation at 254 nm, pH 6, error ± 20%
# [5] = irradiation at 365 nm (I0 2.0–2.6 × 10–7 mol/s)
"E→Z photoisomerization of the protonated form (UV-vis changes) ([1]; irradiation at 254 nm, acidic medium pH = pKa – 2)",PSD E→Z (photostationary state distribution) [2] [% Z],PSD Z→E (photostationary state distribution) [2] [% E],"Φ E→Z photoisomerization quantum yield [1, 4]",Φ E→Z photoisomerization quantum yield ([1]; irradiation at 365 nm),"Φ Z→E photoisomerization quantum yield ([1]; pH 6, error ± 20%)",SMILES,"k E-PH+ to Z-PH+ photoisomerization [1, 3]","k E-PH+ to Z-PH+ photoisomerization [1, 5]"
no detectable changes,,,,,,C[n+]1ccc(-c2ccc(NN=CC(=O)c3ccccc3)cc2)cc1 [P dH^+],,
,93,67,0.20,0.22,0.001,C[n+]1ccc(NN=CC(=O)c2ccccc2)cc1 [P aH^+],1.55 10^–2 s^–1,6.4 10^–2 s^–1
,93,57,0.38,0.35,0.002,C[n+]1ccc(NN=CC(=O)c2ccccc2)c2ccccc21 [P bH^+],4.91 10^–2 s^–1,3.0 10^–2 s^–1
,98,55,0.34,0.34,0.008,O=C(C=NNc1cc[n+](-c2ccccc2)cc1)c1ccccc1 [P cH^+],4.90 10^–2 s^–1,2.0 10^–2 s^–1

# — paper PMC13185115, “Photovermellogens: Minimalistic Pyridinium-Based Acylhydrazones with Photoswitchable Basicity for Operation in Aqueous Media” (The Journal of Organic Chemistry, 2026)
